According to paper PMC8222276 (Communications Biology, 2021):
One block for each molecule: values may come before it.

Key:
HUVECs = test: cell proliferation (72 h) of HUVECs; assay type: cell-based, human; settings: HUVEC, 72 h
Description: (§1) Data are analysed using a three-parameter non-linear regression curve or the operational model of receptor agonism. g–h Signalling bias plots were calculated as ∆Log(τ/KA) (g) or ∆∆Log(τ/KA) (h) for each agonist and for each signalling pathway. […] Solid arrows indicate known pathways. Dashed arrows represent possible pathways.
Both endothelial cell lines and HCMs were seeded at a density of 2500 cells/well in a clear flat bottom 96-well plate (Corning, UK) and incubated at 37 °C in 5% CO2. After 24 h, cells were exposed to test compounds or vehicle, in complete endothelial cell growth media (HUVECs) or myocyte growth media (HCMs). Cells were incubated for a further 72 h at 37 °C in 5% CO2. After 72 h incubation, 5 μl of Cell Counting Kit–8 (CCK-8, Sigma, UK) was added to each well and cells were then incubated for another 2 h at 37 °C in 5% CO2 and in the dark[61]. The absorbance of each well was measured using a Mithras LB940 microplate reader with an excitation of 450 nm. The absorbance is directly proportional to the number of viable cells. Cell proliferation was calculated as a percentage of number of cells treated with vehicle alone.
(§2) All sample sizes were determined, and data analysed, in accordance with the guidelines described by Curtis M et al.[65]. All experiments were appropriately controlled using ‘system pathway’ agonists. If any of these pathway controls generated inappropriate responses, then the entire data set was removed from analysis. […] Data analysis for cAMP accumulation, Ca^2+i mobilisation, NO accumulation, pERK1/2 activation, and cell proliferation assays were performed in GraphPad Prism 8.4 (GraphPad Software, San Diego). Data were fitted to obtain concentration–response curves using either the three-parameter logistic equation using to obtain values of Emax and pEC50 or the operational model of agonism. Statistical differences were analysed using one-way ANOVA followed by Dunnett’s post-hoc (for comparisons amongst more than two groups) or unpaired Student’s t test with Welch’s correction (for comparison between two groups). To account for the day-to-day variation experienced from the cultured cells, we used the maximal level of cAMP accumulation from cells in response to 100 μM forskolin stimulation was used as a reference, 10 μM ionomycin for Ca^2+i assays, 10 μM phorbol 12-myristate 13-acetate (PMA) for pERK1/2 activation, 10 μM acetylcholine for NO production and 10 μM VEGF for cell proliferation. […] Where appropriate the operational model for receptor agonism[27] was used to obtain efficacy (τ) and equilibrium disassociation constant (KA) values. In both cases, this normalisation removes the variation due to differences in days but retains the variance for control values. The means of individual experiments were combined to generate the curves shown. Having obtained values for τ and KA these were then used to quantify signalling bias as the change in Log(τ/KA)[19],[28]. Error for this composite measure was propagated by applying Eq. 1.1 PooledSEM=(SEMA)^2+(SEMB)^2 Where, SEMA and SEMB are the standard error of measurement A and B.

[1] = target: T1, AM1 receptor (CLR-RAMP2) in HUVECs (Homo sapiens, UniProt O60895+Q16602); test: antagonism of agonist-induced cAMP accumulation in HUVECs; assay type: cell-based; settings: HUVEC; 100 nM
T1 construct: HUVECs specifically express the AM1 receptor alone; host or cells: primary HUVECs
T1 sequence (Q16602 23-461): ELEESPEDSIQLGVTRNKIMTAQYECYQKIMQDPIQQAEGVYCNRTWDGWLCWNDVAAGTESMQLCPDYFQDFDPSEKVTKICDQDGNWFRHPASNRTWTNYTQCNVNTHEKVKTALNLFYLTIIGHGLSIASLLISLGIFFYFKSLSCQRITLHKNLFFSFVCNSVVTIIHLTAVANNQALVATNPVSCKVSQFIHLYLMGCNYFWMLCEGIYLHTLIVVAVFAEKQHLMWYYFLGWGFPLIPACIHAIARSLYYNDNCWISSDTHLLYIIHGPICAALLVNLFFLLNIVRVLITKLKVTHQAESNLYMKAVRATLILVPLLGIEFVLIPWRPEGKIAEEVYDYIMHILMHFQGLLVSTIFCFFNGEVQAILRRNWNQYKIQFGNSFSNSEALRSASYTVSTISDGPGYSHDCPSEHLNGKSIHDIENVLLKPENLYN
T1 sequence (O60895 43-175): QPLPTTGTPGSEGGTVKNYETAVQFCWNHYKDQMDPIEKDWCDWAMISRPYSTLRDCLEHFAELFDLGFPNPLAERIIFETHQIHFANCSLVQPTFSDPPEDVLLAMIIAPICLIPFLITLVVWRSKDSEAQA
Description: (§3) All primary cell lines were cultured as above. On the day of the experiment media was removed and cells washed with PBS, before being dissociated with Trypsin-EDTA 0.05% (Gibco, UK) and then resuspended in PBS/BSA (0.1%) (Sigma, UK). Cells were immediately plated for use in cAMP assay as per the manufacturer’s instructions, reagents used were provided by the LANCE® cAMP detection assay kit (PerkinElmer, Boston, MA, USA), in 384 well optiplates (PerkinElmer (Boston, MA, USA)) at 2000 cells/well in 5 μl aliquots. […] Cells were incubated with compound for 30 min prior to adding detection buffer[28],[60]. Plates were incubated for a further 60 min (room temperature) and then read on a plate reader (Mithras LB 940 microplate reader (Berthold technologies, Germany)). All responses were normalised to 100μM forskolin (Tocris, UK). Antagonist studies were performed in the same way through co-stimulation of the relevant concentration. Alongside control-treated cell. Experiments with PTX (Sigma, UK) required pretreatment (16 h) prior to assays.

AM receptors = settings: at concentrations of up to 10 micromolar; ref Doods et al., Br. J. Pharmacol., 129, (2000), pp. 420-423; cited from earlier work
[2] = target: T2, CGRP receptor (CLR-RAMP1) in human cardiomyocytes (HCMs) (Homo sapiens, UniProt O60894+Q16602); test: antagonism of agonist-induced cAMP accumulation in HCMs; assay type: cell-based; settings: HCM; 100 nM
T2 construct: primary human cardiomyocytes (HCMs) since these cells only expressed CLR and RAMP1; host or cells: primary human cardiomyocytes (HCMs)
T2 sequence (Q16602 23-461): as the sequence (Q16602 23-461) above
T2 sequence (O60894 27-148): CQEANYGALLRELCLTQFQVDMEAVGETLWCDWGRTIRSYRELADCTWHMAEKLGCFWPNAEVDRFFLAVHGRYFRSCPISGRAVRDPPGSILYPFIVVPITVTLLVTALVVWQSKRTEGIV
Description: as §3

[3] = target: T1, AM1 receptor (CLR-RAMP2) in HUVECs; test: mobilisation of Ca2+i in HUVECs; assay type: cell-based; settings: HUVEC; Gαq/11/14 inhibitor co-treatment, 100 nM
Description: as §1
All cell lines were plated at 20,000 cells/well on 96-well black clear-bottom plates (Costar, UK) 24 h before the experiment. […] Cells were then washed twice with calcium-free HBSS, then were left in 100 μl calcium-free HBSS for the duration of the assay. […] Data was normalised to the response seen with 10 μM Ionomycin.
(§4) All sample sizes were determined, and data analysed, in accordance with the guidelines described by Curtis M et al.[65]. All experiments were appropriately controlled using ‘system pathway’ agonists. If any of these pathway controls generated inappropriate responses, then the entire data set was removed from analysis. […] Statistical differences were analysed using one-way ANOVA followed by Dunnett’s post-hoc (for comparisons amongst more than two groups) or unpaired Student’s t test with Welch’s correction (for comparison between two groups). […] Having obtained values for τ and KA these were then used to quantify signalling bias as the change in Log(τ/KA)[19],[28]. […]

[4] = target: T1, AM1 receptor (CLR-RAMP2) in HUVECs; test: total nitric oxide production in HUVECs; assay type: cell-based; settings: HUVEC
Description: as §1
Endothelial cells and HCMs were cultured as above. 24 h prior to assay cells were plated on Costar 96-well black clear bottom plates at 40,000 cells/well. The assay was performed according to the manufacturer’s protocol. Briefly, cells pre-incubated with NO dye and assay buffer 1 (Fluorometric Nitric Oxide Assay Kit, Abcam, UK) for 30 min at 37 °C in 5% CO2. Any inhibitors requiring 30 min pre-treatment (YM/L-NAME/DMSO control) were added at this point. Ligand stimulation occurred immediately after this for 15 min at 37 °C in 5% CO2. Stain and ligand solution was removed, assay buffer II was added, and wells were read immediately. The absorbance was measured using a Tecan T200 (Thermo Fisher Scientific UK) reader with an excitation/emission of 540/590 nm. Endothelial cell responses were normalised to 10 μM acetylcholine. HCM responses were normalised to 10 μM isoproterenol[63],[64].
as §2

[5] = target: T1, AM1 receptor (CLR-RAMP2) in HUVECs; test: cAMP accumulation in HUVECs; assay type: cell-based; settings: HUVEC; calcitonin receptor agonists
Description: as §1
All primary cell lines were cultured as above. On the day of the experiment media was removed and cells washed with PBS, before being dissociated with Trypsin-EDTA 0.05% (Gibco, UK) and then resuspended in PBS/BSA (0.1%) (Sigma, UK). […] Plates were incubated for a further 60 min (room temperature) and then read on a plate reader (Mithras LB 940 microplate reader (Berthold technologies, Germany)). […]
as §4, with “al.[65].” for “al.[65]. All experiments were appropriately controlled using ‘system pathway’ agonists. If any of these pathway controls generated inappropriate responses, then the entire data set was removed from analysis.”

Molecule: C=C[C@@]1(C)CC(=O)[C@]2(O)[C@@]3(C)[C@@H](O)CCC(C)(C)[C@@H]3[C@H](O)[C@H](OC(C)=O)[C@@]2(C)O1 [forskolin]
effect of forskolin on cell proliferation (HUVECs): concentration-dependent inhibition of cell proliferation

Molecule: NCCCC[C@H](NC(=O)[C@@H](Cc1cc(Br)c(O)c(Br)c1)NC(=O)N1CCC(N2Cc3ccccc3NC2=O)CC1)C(=O)N1CCN(c2ccncc2)CC1 [olcegepant]
effect on agonist-induced cAMP accumulation [1]: had little effect
action on AM receptors (AM receptors): no actions on AM receptors
effect on cAMP accumulation for all three agonists [2]: inhibit cAMP accumulation for all three agonists

effect of YM-254890 on Ca2+i responses [3]: all responses could be abolished
effect of YM-254890 on NO release [4]: abolished all NO release
Molecule: YM-254890

Molecule: amylin: calcitonin receptor agonist (KCNTATCATQRLANFLVHSSNNFGAILSSTNVGSNTY; Islet amyloid polypeptide; UniProt P10997 34-70, looked up)
functional response [5]: unable to detect the presence of its transcript (Fig. 1a) or obtain a functional response

Molecule: calcitonin: calcitonin receptor agonist
functional response [5]: unable to detect the presence of its transcript (Fig. 1a) or obtain a functional response
